Data published in BindingDB's records for doi:10.7270/Q2JD4V5T (Burnham Center for Chemical Genomics, 2008).

How the values were obtained:
Ephrin type-A receptor 4 = Ephrin type-A receptor 4 (Mus musculus, UniProt Q03137); assay: placental alkaline phosphatase inhibitors, dose response, counter-screen, biochemical, colorimetric (AID 779)
[1] = as above

Chain of Ephrin type-A receptor 4 (Q03137 whole entry): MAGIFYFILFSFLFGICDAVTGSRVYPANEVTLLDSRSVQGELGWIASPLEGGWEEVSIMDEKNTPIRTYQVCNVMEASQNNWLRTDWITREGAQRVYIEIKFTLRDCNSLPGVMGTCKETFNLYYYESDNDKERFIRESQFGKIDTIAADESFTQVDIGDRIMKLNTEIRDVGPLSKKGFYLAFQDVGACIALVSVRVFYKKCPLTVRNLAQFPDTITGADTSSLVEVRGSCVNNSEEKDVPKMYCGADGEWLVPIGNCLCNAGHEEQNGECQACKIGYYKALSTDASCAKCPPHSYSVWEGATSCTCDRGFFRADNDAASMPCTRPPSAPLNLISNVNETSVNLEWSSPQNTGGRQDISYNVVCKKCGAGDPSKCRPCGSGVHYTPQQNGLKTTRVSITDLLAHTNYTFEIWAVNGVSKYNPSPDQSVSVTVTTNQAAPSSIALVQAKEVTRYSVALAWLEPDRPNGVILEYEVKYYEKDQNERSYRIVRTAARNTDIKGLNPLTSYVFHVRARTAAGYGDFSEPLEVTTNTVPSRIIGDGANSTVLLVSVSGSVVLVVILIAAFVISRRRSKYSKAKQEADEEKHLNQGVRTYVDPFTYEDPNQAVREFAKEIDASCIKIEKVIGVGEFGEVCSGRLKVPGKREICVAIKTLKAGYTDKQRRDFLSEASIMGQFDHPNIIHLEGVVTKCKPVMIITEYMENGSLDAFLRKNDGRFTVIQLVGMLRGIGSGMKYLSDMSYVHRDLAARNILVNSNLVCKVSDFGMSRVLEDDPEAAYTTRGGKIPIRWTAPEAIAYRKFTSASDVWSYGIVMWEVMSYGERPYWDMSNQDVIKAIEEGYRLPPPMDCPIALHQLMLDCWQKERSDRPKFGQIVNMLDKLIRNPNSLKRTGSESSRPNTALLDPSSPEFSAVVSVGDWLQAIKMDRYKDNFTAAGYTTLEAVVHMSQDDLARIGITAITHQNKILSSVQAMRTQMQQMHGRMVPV

IC50 (Ephrin type-A receptor 4) [µM] | IC50 [1] [µM] | Compound
 | > 50 | O=C1/C(=C\c2nc3ccccc3[nH]2)SC(=S)N1c1ccc(F)cc1 [SMR000163732]
> 50 |  | Cc1ccc(Cl)cc1-n1c(C)nc(Cc2ccc([N+](=O)[O-])cc2)c1O [MLS000519000]

More lines, now with the values behind:

Compound | IC50 (Ephrin type-A receptor 4) [µM] | IC50 [1] [µM]
CCCCOP(=O)(OCCCC)C(C#N)C(C)=O (stereo unspecified) [(Z)-2-dibutoxyphosphoryl-3-hydroxy-2-butenenitrile] | > 50 | 
CCN1C(=O)C(C=NN=Cc2ccccc2)c2ccc(C3=NNC(=O)CC3)cc21 (stereo unspecified) [benzaldehyde {[1-ethyl-2-oxo-6-(6-oxo-1,4,5,6-tetrahydro-3-pyridazinyl)-1,2-dihydro-3H-indol-3-ylidene]methyl}hydrazone] | > 50 | 
CC(CC(=O)c1ccccc1)N=Nc1nc2ccccc2s1 (stereo unspecified) [(E)-3-(1,3-benzothiazol-2-ylhydrazo)-1-phenyl-2-buten-1-one] | > 50 | 
CCCCN(CCCC)c1nc2ccccc2nc1C(C#N)C(=O)OCC (stereo unspecified) [(2Z)-2-cyano-2-[3-(dibutylamino)-1H-quinoxalin-2-ylidene]acetic acid ethyl ester] | > 50 | 
